Drawing on PubChem BioAssay (NCI), this text covers TGI and GI50 for 13 molecules.

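Dose response: 5 concentrations. Exposure: 48 h. Format: 96-well plates. Endpoint: linear interpolation; highest concentration if not reached. The concentration for 50% growth inhibition is given as GI50. TGI: total growth inhibition.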

In the first test the test system is NCI-H226 lung. Put plainly: growth of human tumour cells (NCI), 48 h.
In turn, `Cc1cccc(C)c1NC(=O)C(=O)C(C(=O)c1ccccc1-c1ccccc1)C1OC(=O)c2ccccc21` (configuration not stated) had a TGI of 30.3 µM.
On the same count and under the same terms, next, `CC1COC(C)(C)P(=O)(c2ccccc2)C1` (configuration not stated): over 100 µM.
Molecule `CCOP(=O)(OCC)OC1C=CC2CCC1C2` (configuration not stated) returned a TGI of over 100 µM.
Same read-out and setting: next, `CCCO/S(=N\S(=O)(=O)c1ccccc1)c1ccccc1[N+](=O)[O-]` (configuration not stated): over 100 µM; `C/C(CC(=O)Nc1cccc(Cl)c1C)=N\NC(=O)c1ccncc1`: over 100 µM; `O=Cc1ccc2c(c1-c1c(C=O)ccc3c1OCO3)OCO2`: over 100 µM.

The test system of the next test is RXF 393 renal. Description: growth of human tumour cells (NCI), 48 h.
On to `CC(C)C(=O)NS(=O)(=O)c1ccccc1`, for which the TGI was over 100 µM.
Regarding `COC1(OC)CC2C(=O)N(Cc3ccccc3)C1C=C2S(=O)(=O)c1ccccc1` (configuration not stated), the TGI is 29 µM.
Take `CC(=O)[O][Ga]([Br])[O]C(C)=O`: the GI50 was over 100 µM and the TGI was over 100 µM.
On to `COc1cc2c(OC)cc1CSCc1sc(C)c(c1Br)CSC2`, for which the TGI is over 100 µM.
In turn, `CC(C)N(C(=O)C12C3C4C1(I)C1C2C3(I)C41C(=O)N(C(C)C)C(C)C)C(C)C` (configuration not stated) registered a TGI of over 100 µM.
`Cc1cccc(C)c1NC(=O)C(=O)C(C(=O)c1ccccc1-c1ccccc1)C1OC(=O)c2ccccc21` (configuration not stated) returned a TGI of 28.4 µM.
In the case of `CC1COC(C)(C)P(=O)(c2ccccc2)C1` (configuration not stated), the TGI was over 100 µM.
The molecule `Cc1ccc(S(=O)(=O)c2ccc(N)cc2)cc1` came in with a TGI of over 100 µM.
`CCOP(=O)(OCC)OC1C=CC2CCC1C2` (configuration not stated): the TGI is over 100 µM.
`COC(=O)/C=C1\CCC(C)O1` (configuration not stated) returned a TGI of over 100 µM.
Molecule `C/C(CC(=O)Nc1cccc(Cl)c1C)=N\NC(=O)c1ccncc1` yielded a TGI of 87.9 µM.

Another test has as its system SF-268 CNS. Description: growth of human tumour cells (NCI), 48 h.
`CC(C)C(=O)NS(=O)(=O)c1ccccc1` returned a TGI of over 100 µM.
Still for that read-out and setting: the value for `COC1(OC)CC2C(=O)N(Cc3ccccc3)C1C=C2S(=O)(=O)c1ccccc1` (configuration not stated) was over 100 µM.
With `CC(=O)[O][Ga]([Br])[O]C(C)=O`, the GI50 is over 100 µM and the TGI is over 100 µM.
In the case of `COc1cc2c(OC)cc1CSCc1sc(C)c(c1Br)CSC2`, the TGI is over 100 µM.
The same measure, in the same setting: the value for `CC(C)N(C(=O)C12C3C4C1(I)C1C2C3(I)C41C(=O)N(C(C)C)C(C)C)C(C)C` (configuration not stated) was over 100 µM; that for `Cc1cccc(C)c1NC(=O)C(=O)C(C(=O)c1ccccc1-c1ccccc1)C1OC(=O)c2ccccc21` (configuration not stated) was 78.4 µM.
`CCOP(=O)(OCC)OC1C=CC2CCC1C2` (configuration not stated) returned a TGI of over 100 µM.
As for `COC(=O)/C=C1\CCC(C)O1` (configuration not stated), the TGI was over 100 µM.
In turn, `CCCO/S(=N\S(=O)(=O)c1ccccc1)c1ccccc1[N+](=O)[O-]` (configuration not stated) had a TGI of over 100 µM.
The molecule `C/C(CC(=O)Nc1cccc(Cl)c1C)=N\NC(=O)c1ccncc1` came in with a TGI of over 100 µM.
`O=Cc1ccc2c(c1-c1c(C=O)ccc3c1OCO3)OCO2` came in with a TGI of over 100 µM.

The next test relates to SF-539 CNS. Description: growth of human tumour cells (NCI), 48 h.
As for `CC(C)C(=O)NS(=O)(=O)c1ccccc1`, the TGI is over 100 µM.
For the molecule `COC1(OC)CC2C(=O)N(Cc3ccccc3)C1C=C2S(=O)(=O)c1ccccc1` (configuration not stated), the TGI came to 32.7 µM.
Take `CC(=O)[O][Ga]([Br])[O]C(C)=O`: the GI50 was over 100 µM and the TGI was over 100 µM.
With `COc1cc2c(OC)cc1CSCc1sc(C)c(c1Br)CSC2`, the TGI was over 100 µM.
In turn, `CC(C)N(C(=O)C12C3C4C1(I)C1C2C3(I)C41C(=O)N(C(C)C)C(C)C)C(C)C` (configuration not stated) came in with a TGI of over 59.6 µM.
As for `Cc1cccc(C)c1NC(=O)C(=O)C(C(=O)c1ccccc1-c1ccccc1)C1OC(=O)c2ccccc21` (configuration not stated), the TGI came to 28.3 µM.
In turn, `CC1COC(C)(C)P(=O)(c2ccccc2)C1` (configuration not stated) came in with a TGI of over 100 µM.
Molecule `Cc1ccc(S(=O)(=O)c2ccc(N)cc2)cc1` came in with a TGI of over 100 µM.
Molecule `CCOP(=O)(OCC)OC1C=CC2CCC1C2` (configuration not stated) returned a TGI of over 100 µM.
Molecule `COC(=O)/C=C1\CCC(C)O1` (configuration not stated) came in with a TGI of over 100 µM.
As to `CCCO/S(=N\S(=O)(=O)c1ccccc1)c1ccccc1[N+](=O)[O-]` (configuration not stated), the TGI was over 100 µM.
With `C/C(CC(=O)Nc1cccc(Cl)c1C)=N\NC(=O)c1ccncc1`, the TGI was over 100 µM.
As for `O=Cc1ccc2c(c1-c1c(C=O)ccc3c1OCO3)OCO2`, the TGI is over 100 µM.

Another test has as its system TK-10 renal. Put plainly: growth of human tumour cells (NCI), 48 h.
Molecule `CC(C)C(=O)NS(=O)(=O)c1ccccc1` returned a TGI of over 100 µM.
`COC1(OC)CC2C(=O)N(Cc3ccccc3)C1C=C2S(=O)(=O)c1ccccc1` (configuration not stated): the TGI is 49.1 µM.
Regarding `CC(=O)[O][Ga]([Br])[O]C(C)=O`, the GI50 is over 100 µM and the TGI is over 100 µM.
As to `COc1cc2c(OC)cc1CSCc1sc(C)c(c1Br)CSC2`, the TGI is over 100 µM.
For the molecule `CC(C)N(C(=O)C12C3C4C1(I)C1C2C3(I)C41C(=O)N(C(C)C)C(C)C)C(C)C` (configuration not stated), the TGI was over 100 µM.
On the same count and under the same terms, the value for `Cc1cccc(C)c1NC(=O)C(=O)C(C(=O)c1ccccc1-c1ccccc1)C1OC(=O)c2ccccc21` (configuration not stated) was 53.7 µM; that for `CC1COC(C)(C)P(=O)(c2ccccc2)C1` (configuration not stated) was over 100 µM; that for `Cc1ccc(S(=O)(=O)c2ccc(N)cc2)cc1` was over 100 µM.
Same read-out and setting: next, `CCOP(=O)(OCC)OC1C=CC2CCC1C2` (configuration not stated): over 100 µM.
As for `COC(=O)/C=C1\CCC(C)O1` (configuration not stated), the TGI was over 100 µM.
Consider `C/C(CC(=O)Nc1cccc(Cl)c1C)=N\NC(=O)c1ccncc1`, for which the TGI was over 100 µM.
Turning to `O=Cc1ccc2c(c1-c1c(C=O)ccc3c1OCO3)OCO2`, the TGI was over 100 µM.
